The structures appear in SMILES notation.

The nature of the data set: Cytotoxicity against HCV genotype 1b NS5A infected human HuH7 cells assessed as reduction in cell viability measured after 72 hrs by CellTiter-Glo assay. To be noted: HuH7 cells infected with HCV genotype 1b NS5A. (ATP-based viability assays read luminescence as a measure of living cells.)
`COC(=O)N[C@H](C(=O)N1CCC[C@H]1c1ncc(-c2ccc(C#CC#Cc3cnc([C@@H]4CCCN4C(=O)[C@H](NC(=O)OC)c4ccccc4)[nH]3)c(N3CCN(C)CC3)c2)[nH]1)C(C)C`: the CC50 – broadly, the concentration at which the toxic effect on the cells reaches its halfway point – at 72 h is more than 10 µM.

With `COC(=O)N[C@H](C(=O)N1CCC[C@H]1c1ncc(-c2ccc(C#CC#Cc3cnc([C@@H]4CCCN4C(=O)[C@H](NC(=O)OC)c4ccccc4)[nH]3)c(-c3ccc(N(C)C)cc3)c2)[nH]1)C(C)C`, the CC50 at 72 h is more than 10 µM.

Turning to `COC(=O)N[C@H](C(=O)N1CCC[C@H]1c1ncc(-c2ccc(C#CC#Cc3cnc([C@@H]4CCCN4C(=O)[C@H](NC(=O)OC)c4ccccc4)[nH]3)c(-c3cccc(-c4ccccc4)c3)c2)[nH]1)C(C)C`, the CC50 at 72 h was more than 10 µM.

Consider `COC(=O)N[C@H](C(=O)N1CCC[C@H]1c1ncc(-c2ccc(C#CC#Cc3cnc([C@@H]4CCCN4C(=O)[C@H](NC(=O)OC)c4ccccc4)[nH]3)c(Sc3ccccc3)c2)[nH]1)C(C)C`, for which the CC50 at 72 h is more than 10 µM.

With `COC(=O)N[C@H](C(=O)N1CCC[C@H]1c1ncc(C#CC#Cc2ccc(-c3cnc([C@@H]4CCCN4C(=O)[C@@H](NC(=O)OC)C(C)C)[nH]3)cc2)[nH]1)c1ccccc1`, the CC50 at 72 h was more than 10 µM.

Regarding `COC(=O)N[C@H](C(=O)N1CCC[C@H]1c1ncc(-c2ccc(C#CC#Cc3cnc([C@@H]4CCCN4C(=O)[C@H](NC(=O)OC)c4ccccc4)[nH]3)c(-c3ccc(C(C)(C)C)cc3)c2)[nH]1)C(C)C`, the CC50 at 72 h is more than 10 µM.

As for `COC(=O)N[C@H](C(=O)N1CCC[C@H]1c1ncc(-c2ccc(C#CC#Cc3cnc([C@@H]4CCCN4C(=O)[C@H](NC(=O)OC)c4ccccc4)[nH]3)c(-c3ccc(N4CCN(C)CC4)cc3)c2)[nH]1)C(C)C`, the CC50 at 72 h is more than 10 µM.

For `COC(=O)N[C@H](C(=O)N1CCC[C@H]1c1ncc(C#CC#Cc2c(F)cc(-c3cnc([C@@H]4CCCN4C(=O)[C@@H](NC(=O)OC)C(C)C)[nH]3)cc2-c2ccccc2)[nH]1)C(C)C`, the CC50 at 72 h was more than 10 µM.

As for `COC(=O)N[C@H](C(=O)N1CCC[C@H]1c1ncc(C#CC#Cc2c(C)cc(-c3cnc([C@@H]4CCCN4C(=O)[C@@H](NC(=O)OC)C(C)C)[nH]3)cc2-c2ccccc2)[nH]1)C(C)C`, the CC50 at 72 h is more than 10 µM.

Regarding `COC(=O)N[C@H](C(=O)N1CCC[C@H]1c1ncc(C#CC#Cc2ccc(-c3cnc([C@@H]4CCCN4C(=O)[C@@H](NC(=O)OC)C(C)C)[nH]3)cc2-c2cccc(-c3ccccc3)c2)[nH]1)C(C)C`, the cytotoxic concentration (CC50) at 72 h was more than 10 µM.

Turning to `COC(=O)N[C@H](C(=O)N1CCC[C@H]1c1ncc(-c2ccc(C#CC#Cc3cnc([C@@H]4CCCN4C(=O)[C@H](NC(=O)OC)c4ccccc4)[nH]3)c(-c3ccc(-c4ccccc4)cc3)c2)[nH]1)C(C)C`, the CC50 at 72 h is more than 10 µM.

`COC(=O)N[C@H](C(=O)N1CCC[C@H]1c1ncc(C#CC#Cc2ccc(-c3cnc([C@@H]4CCCN4C(=O)[C@@H](NC(=O)OC)C(C)C)[nH]3)cc2-c2ccc3ccccc3c2)[nH]1)C(C)C`: the CC50 at 72 h was more than 10 µM.

For the molecule `COC(=O)N[C@H](C(=O)N1CCC[C@H]1c1ncc(-c2ccc(C#CC#Cc3cnc([C@@H]4CCCN4C(=O)[C@H](NC(=O)OC)c4ccccc4)[nH]3)c(Oc3ccccc3)c2)[nH]1)C(C)C`, the CC50 at 72 h is more than 10 µM.

Turning to `COC(=O)N[C@H](C(=O)N1CCC[C@H]1c1ncc(C#CC#Cc2ccc(-c3cnc([C@@H]4CCCN4C(=O)[C@@H](NC(=O)OC)C(C)C)[nH]3)cc2-c2ccccc2)[nH]1)C(C)C`, the CC50 at 72 h is more than 10 µM.

As to `COC(=O)N[C@H](C(=O)N1CCC[C@H]1c1ncc(C#CC#Cc2ccc(-c3cnc([C@@H]4CCCN4C(=O)[C@@H](NC(=O)OC)C(C)C)[nH]3)cc2-c2ccc(C(C)(C)C)cc2)[nH]1)C(C)C`, the CC50 at 72 h is more than 10 µM.

As for `COC(=O)N[C@H](C(=O)N1CCC[C@H]1c1ncc(-c2cc(C)c(C#CC#Cc3cnc([C@@H]4CCCN4C(=O)[C@H](NC(=O)OC)c4ccccc4)[nH]3)c(-c3ccccc3)c2)[nH]1)C(C)C`, the CC50 at 72 h was more than 10 µM.

Regarding `COC(=O)N[C@H](C(=O)N1CCC[C@H]1c1ncc(-c2ccc(C#CC#Cc3cnc([C@@H]4CCCN4C(=O)[C@H](NC(=O)OC)c4ccccc4)[nH]3)c(-c3cccc(C(C)(C)C)c3)c2)[nH]1)C(C)C`, the CC50 at 72 h was more than 10 µM.

For the origin of these results see ChEMBL document CHEMBL4665875, “Synthesis, biological evaluation and in silico modeling of novel pan-genotypic NS5A inhibitors” (Bioorg Med Chem, 2020).
